Test results reported in patent publication US20210059983A1, “METHODS AND MATERIALS FOR IDENTIFYING AND TREATING CANCER” (Mayo Foundation for Medical Education and Research, priority 2018, published 2021).
“Also recorded” adds a separate entry of the source.

Columns and labels:
[1] = target: recombinant TET-2 protein (Homo sapiens, UniProt Q6N021); experiment: Fluorescence quenching of recombinant TET-2 protein (Stern-Volmer); assay type: binding
Description: The step width was 1 nm, and the integration time was 1 second.
All protein solutions contained 0.5 μM TET2 in PBS buffer.
In this equation, KD was the quenching constant, and [Q] was a defined concentration of ascorbic acid. F^0 and F were the fluorescence intensities (at 328 nm) in absence and presence of ascorbic acid, respectively.

[2] = test system: RCC cells (786O) xenografted; experiment: In vivo xenograft study with AA; set-up: species or system immunodeficient NSG mice; details: IV AA 1 g/kg per day, 5 days/week, 5 weeks, vs vehicle; n=10 per cohort
Description: RCC cells (786O) were xenografted into immunodeficient NSG mice. After tumors were established, treatment was initiated with tail vein injections: IV AA at 1 g/kg/d or vehicle over 5 weeks (5 days dosing/week), and tumor measurements were conducted.

[3] = test system: 786-O cells; experiment: Flow cytometry for apoptosis (Annexin V/PI); assay type: cell-based; details: AA 1 mM + catalase, assay at 96 hour time point
Description: (§1) 786-O cells were treated with high dose ascorbic acid (+catalase), and apoptosis and cell cycle dynamics were studied at the 96 hour time point. Cells were washed with Annexin buffer solution and stained with both propidium iodide (PI) and FITC-Annexin V (Life Technologies), and assayed on a BD FACS Calibur flow cytometer (BD Biosciences). Apoptosis results were analyzed with BD CellQuest software. For cell cycle analysis, cells were fixed with 70% cold ethanol and subsequently analyzed after PI staining. Analysis was performed using FlowJo software.

[4] = test system: TET enzymatic activity in RCC cells (769P and 7860); experiment: In-vitro TET enzymatic activity of nuclear extracts from AA treated RCC cells (ELISA-based Epigenase 5mC Hydroxylase TET Activity kit); details: pH neutralized AA, ccRCC cell lines 769P and 7860, short exposure then 24 hour incubation in fresh media
Description: Cells were treated with different concentrations of pH neutralized AA, with or without catalase. Exposure time to 1 mM AA was 2 hours (taking into account the plasma concentration curve with intravenous (i.v.) AA and potential differences between plasma concentrations with that of tumor microenvironment) followed by the cells being washed and incubated in fresh media for 24 hours. Nuclear protein was then isolated from cells using the EpiQuik nuclear extraction kit (Epigentek Group Inc, Farmingdale, N.Y., USA), according to the manufacturer's instructions. TET enzymatic activity was measured by using the Enzyme Linked ImmunoSorbent Assay (ELISA)-based Epigenase 5mC Hydroxylase TET Activity/Inhibition Assay Kit (Fluorometric) according to the manufacturer's instructions. This technique relied on the conversion of methylated products at the bottom of the wells to hydroxymethylated products by the TET enzyme present in the nuclear extract. Thus, the amount of hydroxymethylated products formed was a measure of the TET activity of the nuclear extract harvested from the cells being tested. Incubation time of nuclear lysates was 90 minutes. Six micrograms of nuclear lysate was used per well for measurement of TET activity.

[5] = test system: RCC (786O) cells; experiment: Cell viability (Cell Titer Blue); assay type: cell-based
Description: Cells were incubated at varying concentrations and at various time periods with L-ascorbic acid (Sigma-Aldrich, Cat #50-81-7) with or without catalase at 100 μg/mL (Sigma-Aldrich, Cat #9001-05-2). Viability was assessed by addition of Cell Titer Blue (Promega, Madison, Wis., USA) and measured via Fluostar Omega Microplate reader (BMG Labtech, Offenburg, Germany). […] A protocol modification to counter this interference was done as described elsewhere (Shenoy et al., Laboratory Investigation, 97:494-497 (2017)) and used in this study.

[6] = test system: RCC cells 769P; experiment: Measurement of 5hmC levels by LC-ESI-MS/MS; assay type: cell-based; details: 769P cells after AA treatment
[7] = test system: ccRCC cells (786 and 769); experiment: Genome wide DNA methylation analysis using the HELP assay; assay type: cell-based, human
Description: The HELP assay was carried out as described elsewhere ([…] et al., Nucleic Acids Res., 41(16):e157 (2013)). Intact DNA of high molecular weight was corroborated by electrophoresis on 1% agarose gel in all cases. One microgram of genomic DNA was digested overnight with either HpaII or MspI (NEB, Ipswich, Mass.). The following day, the reactions were extracted once with phenol-chloroform and resuspended in 11 μL of 10 mM Tris-HCl pH 8.0. The digested DNA was used to set up an overnight ligation of the JHpaII adapter using T4 DNA ligase. The adapter-ligated DNA was used to carry out the PCR amplification of the HpaII and MspI-digested DNA as described elsewhere ([…] et al., Nucleic Acids Res., 41(16):e157 (2013)). Both amplified fractions were submitted for labeling and hybridization onto a human hg18 custom-designed oligonucleotide array (50-mers) covering 1.3 million HpaII amplifiable fragments (HAF). All microarray hybridizations were subjected to extensive quality control. Uniformity of hybridization was evaluated using a modified version of an algorithm adapted for the NimbleGen platform, and any hybridization with strong regional artifacts was discarded. Bioinformatic analysis was done as described elsewhere (Bhattacharyya et al., Nucleic Acids Res., 41(16):[…] (2013); Suzuki et al., Genome Biol., 11(4):[…] (2010)).

[8] = test system: 786-O cells; experiment: Flow cytometry for cell cycle analysis (PI); assay type: cell-based; details: high dose AA + catalase, 96 hours
Description: as §1

[9] = 0.5 μM TET-2 alone in PBS, 20° C.

Row | quenching efficiency (Stern-Volmer constant +/−SD) [1, 9] | quenching efficiency (Stern-Volmer constant +/−SD) ([1]; 0.5 μM TET-2 in presence of 23 μM 2OG) | quenching efficiency (Stern-Volmer constant +/−SD) ([1]; 0.5 μM TET-2 in presence of 2OG and L2HG (23 μM each per FIG. 5D legend)) | quenching efficiency (Stern-Volmer constant +/−SD) ([1]; 0.5 μM TET-2 in presence of L2HG (100 μM per FIG. 5D legend)) | reduction of the fluorescence emission signal ([1]; 132 μM AA, 0.5 μM TET-2, emission at 328 nm, excitation 280 nm, maximal quenching) | Structure (SMILES) | tumor growth [2] | apoptosis [3] | TET enzymatic activity [4] | viability, acute (short term exposure) ([5]; high dose AA (millimolar), 24 hours, without catalase) | viability at longer time points ([5]; high dose AA with catalase, longer-term exposure) | acute loss in viability with catalase co-treatment ([5]; high dose AA, 24 hours, with catalase 100 μg/mL) | 5hmC (%5hmC) by LC-ESI-MS/MS [6] | Smad6 promoter methylation ([7]; 786 and 769 ccRCC cells after AA treatment) | global cytosine methylation (HELP assay) ([7]; AA treated vs control ccRCC cells) | cell cycle (G0/G1 arrest) [8]
1 | 15.66 ± 0.12 M⁻¹ | – | – | – | – | O=C(O)CCC(=O)C(=O)O [2OG] | – | – | – | – | – | – | – | – | – | –
2 | 21.46 ± 0.70 M⁻¹ | 18.37 ± 0.80 M⁻¹ | 17.34 ± 0.87 M⁻¹ | 22.17 ± 0.68 M⁻¹ | 90% | O=C1O[C@H]([C@@H](O)CO)C(O)=C1O [AA, L-ascorbic acid] | significantly reduced rate of ccRCC growth; also recorded: significantly delayed tumor growth | increased apoptosis; also recorded: significant increase in apoptosis | increased after treatment; also recorded: increase in TET enzymatic activity | Acute loss in viability | reduced viability; also recorded: dose dependent and progressive loss of viability | reversed by catalase treatment | significantly increased; also recorded: increase in 5hmC | demethylated | increased hypomethylation; also recorded: loss of methylation | significantly arrested in G0/G1 stage; also recorded: significant increase in G0/G1 arrest
